Series [1] deals with L. infantum veterinary isolate (MCAN_UY_2015_gPL8). Kind of series: Growth inhibition of L. infantum veterinary isolate promastigotes (resazurin). The note with it: for Selectivity Index MΦ/Veterinary: EC50 J774.1 macrophages versus L. infantum veterinary isolate; for EC50: Leishmania infantum; for Selectivity Index MΦ/Lin–Vet: EC50 mammalian cell line/EC50 L. infantum veterinary isolate. On the technique in general: Resazurin is reduced to fluorescent resorufin, in cell work by metabolically active cells.

Series [2] deals with L. infantum reference strain (MHOM/BR/2002/LPC-RPV). Kind of series: Growth inhibition of L. infantum reference strain promastigotes (resazurin). Conditions: for Selectivity Index MΦ/Reference: EC50 J774.1 macrophages versus L. infantum reference strain; for EC50: Leishmania infantum.
For a further series, the system named is P. falciparum. Conditions: cited from earlier work.
For the next series, the system named is T. b. brucei. The note with it: ref Duffy et al., 2017; read-out: EC50 T. brucei brucei; cited from earlier work.
For series [3], the system named is hepatocellular carcinoma (HepG2) cell line. The note with it: cited from earlier work.
The next series concerns Candida albicans Biofilm. Set-up: method as in Vila and Lopez-Ribot, 2017. The note with it: ref Vila and Lopez-Ribot, 2017; read-out: EC50 Candida albicans Biofilm Inhibitor; cited from earlier work.
Series [4] can be described thus: Nonspecific cytotoxicity in murine macrophages (MTT). The note with it: mouse, J774.1 murine macrophages.
Method: (§1) Cell viability was then assessed using the 3-(4,5-dimethylthiazol-2-yl)-2,5-diphenyltetrazolium bromide (MTT) colorimetric assay [1]. […] All assays were performed in triplicate [35].
Series [5] deals with T. cruzi. Set-up: method as in Duffy et al., 2017. Conditions: ref Duffy et al., 2017; cited from earlier work.
Series [6] has as its system Leishmania donovani (amastigotes). The note with it: cited from earlier work.
Series [7] deals with L. amazonensis. Kind of series: Murine model of cutaneous Leishmaniasis. Conditions: BALB/c mice, oral, when treatment begins (Figure 2C).
Method: For the in vivo model of cutaneous disease, 1 × 10^7 amastigote parasites of L. amazonensis PH8 were inoculated in the upper part of the left paw of the mice. […] The mice were sacrificed 30 days post-infection. The antiparasitic effect was evaluated by two methods: the weekly evolution of the diameter of the infected paw throughout the experiment (Figure 2C) and the quantification of the parasite load in the infected area at the end of the experiment (Figure 2A).
Golden hamsters (Mesocritus auratus) were used to maintain L. amazonensis infections with the parasites passage every 6 to 8 weeks. BALB/c mice (female and male) supplied by the IFFA-CREDO, Lyon, France, and bred at the Instituto de Investigaciones en Ciencias de la Salud, Asuncion, Paraguay, were inoculated in the right hind footpad with 2 × 10^6 L. amazonensis amastigotes in 100 µL PBS obtained from donor hamsters. Disease progression was monitored by the measurement of lesion diameters for 7 to 12 weeks. […] Two days before the administration of the drug, the mice were randomly divided into groups of eight. […] The animals were euthanized two weeks after cessation of treatments to assess parasitological loads in the infected footpad. […] Following incubation at 27 °C for seven days, cultures were examined with an inverted microscope (Olympus, Tokyo, Japan) at a magnification of ×400. The number of parasites per gram in the lesion was calculated by the following equation: Parasite burden = geometric mean of the number of parasites in each duplicate/(number of microscope field counted × weight of lesion × (25,000) hemocytometer correction factor) [37]. […] Comparisons of parasite suppression in the infected footpads of the untreated and drug-treated groups were performed by Student’s t-test. One-way ANOVA (as a non-parametric statistical test) was also used on ranks.
For series [8] the following is noted: cited from earlier work.
The conditions of series [9]: mice, up and down test, cited from earlier work.
Another series relates to fibroblasts (NCTC929). Description: Cytotoxicity in fibroblasts. Conditions: NCTC-929, read-out: EC50 ± SD Fibroblasts. Format: cell-based. The text has this:
Table 5 Cytotoxicity and selectivity index of reference drugs and selected molecules. | column: EC50 ± SD (µM) ^a / Fibroblasts

On the set-up of series [10]: method as in PMID 24749923, PMID 26492824, PMID 25512408. Conditions: ref [13],[14],[15]; cited from earlier work.
A short description of series [11]: Acute oral toxicity (up and down test). Conditions: mice.
The subject of series [12] is T. cruzi. The note with it: cited from earlier work.
A further series relates to T. brucei. Description: Growth inhibition of T. brucei bloodstream form trypomastigotes (resazurin). Format: cell-based, Trypanosoma brucei brucei. The note with it: Trypanosoma brucei; Table 3, thiazolidene hydrazines; read-out: EC50 ± SD T. brucei. Here is the method: Compounds were dissolved in dimethylsulfoxide (DMSO).
The next series concerns L. infantum amastigote. Description: Single dose study in the amastigote form of L. infantum. The note with it: Leishmania infantum, single dose 10 µM. Type of series: cell-based.
The next series concerns L. braziliensis. Conditions: Table 3, thiazolidene hydrazines; ref [13],[16],[19],[23],[25]; read-out: EC50 ± SD L. brazils; cited from earlier work.
In series [13] the test system is L. amazonensis. Kind of series: Growth inhibition of L. amazonensis promastigotes (resazurin). The note with it: for Selectivity Index MΦ/L. amaz: EC50 mammalian cell line/EC50 L. amazonensis.
The subject of series [14] is J774.1 murine macrophages. Description: Nonspecific cytotoxicity in murine macrophages (MTT). Conditions: Mus musculus, J774.1, read-out: EC50 ± SD MΦ.
Method: as §1
The conditions of series [15]: cited from earlier work. The source holds these as a separate data set.
In another series the test system is C. albicans. Set-up: method as in pubchem.ncbi.nlm.nih.gov. Conditions: ref pubchem.ncbi.nlm.nih.gov; read-out: EC50 C. albicans Growth in the Presence of Fluconazole; cited from earlier work.
Details of series [16]: method as in data provided by the DNDi program, non-published. Conditions: ref data provided by the DNDi program, non-published; cited from earlier work.
A further series concerns the target Replicative DNA helicase. Set-up: method as in pubchem.ncbi.nlm.nih.gov. Conditions: ref pubchem.ncbi.nlm.nih.gov; cited from earlier work.
The target in series [17] is Sphingosine-1-phosphate receptor 4. Set-up: method as in pubchem.ncbi.nlm.nih.gov. Conditions: ref pubchem.ncbi.nlm.nih.gov; cited from earlier work.
The target in series [18] is Neuropeptide S receptor isoform A. Set-up: method as in pubchem.ncbi.nlm.nih.gov. Conditions: ref pubchem.ncbi.nlm.nih.gov; cited from earlier work.
Series [19] concerns the target Aldehyde dehydrogenase 1 family, member A1. Set-up: method as in pubchem.ncbi.nlm.nih.gov. The note with it: ref pubchem.ncbi.nlm.nih.gov; cited from earlier work.
Another series relates to Hsf1 protein. Set-up: method as in pubchem.ncbi.nlm.nih.gov. Conditions: ref pubchem.ncbi.nlm.nih.gov; cited from earlier work.
Series [20] relates to Cell division cycle 42 (GTP binding protein, 25kDa). Set-up: method as in pubchem.ncbi.nlm.nih.gov. The note with it: ref pubchem.ncbi.nlm.nih.gov; cited from earlier work.
Series [21] has as its system L. infantum reference strain (MHOM/BR/2002/LPC-RPV). Conditions: cited from earlier work.
Series [22] concerns L. infantum veterinary isolate (MCAN_UY_2015_gPL8). Conditions: cited from earlier work.
The mark [23] stands for this setting: read-out: EC50 L. infantum Veterinary.
The mark [24] stands for this setting: read-out: EC50 L. infantum Reference.
[25] abbreviates: Table 3, thiazolidene hydrazines, ref [13],[16],[19],[23],[25], read-out: EC50 ± SD T. cruzi.

Where two headings read alike, the source gives them in different places.

As to `Cc1[nH]c2ccccc2c1[C@H](c1cccs1)N1CCN(C)CC1` [MMV688768, 2-Methyl-3-[(R)-(4-methylpiperazin-1-yl)-thiophen-2-ylmethyl]-1H-indole], the “Selectivity Index MΦ/Veterinary” value in [1] is given as over 7. Besides, the EC50 in series [1] (setting [23]) was 6.8 ± 0.1 µM; in series [2] (setting [24]) it was 9.8 ± 0.5 µM; with P. falciparum (ref Duffy et al., 2017, read-out: EC50 P. falciparum ABS activity), 4.7 µM; with T. b. brucei, 1.5 µM; in [3] (ref Vila and Lopez-Ribot, 2017, read-out: EC50 HepG2 cell line), 32 µM; in the series with Candida albicans Biofilm, 3.1 µM. Also, the “Selectivity Index MΦ/Reference” value in series [2] is given as over 5. The compound further gave an EC50 at 48 h in series [4] of over 50 µM.
As for `c1ccc(-c2nc(NC3CCCCC3)cc(C3CC3)n2)nc1` [MMV021013, N-Cyclohexyl-6-cyclopropyl-2-pyridin-2-ylpyrimidin-4-amine], in [1], the “Selectivity Index MΦ/Veterinary” value was over 167. Besides, the EC50 in series [1] (setting [23]) was 0.3 ± 0.1 µM; in the series with T. cruzi [5] it was 1.7 µM; in series [6] (ref Peña et al., 2015) it was 0.8 µM; in [2] (setting [24]), 0.4 ± 0.1 µM; in the series on P. falciparum (ref Ballell et al., 2013, read-out: EC50 P. falciparum), 0.7 µM; in the series on T. b. brucei it was 3.5 µM. In [3] (ref Peña et al., 2015, read-out: EC50 HepG2 human cell line), the concentration for a half-maximal effect (EC50) is 400 µM. Also, the “activity against the L. donovani form found in a mammalian host” value in series [6] (ref [23],[24]) is reported as “significant activity”. For the same compound, the “Selectivity Index MΦ/Reference” value in series [2] is reported as over 125. Also, the EC50 at 48 h in series [4] is over 50 µM.
Regarding `C=CCn1c(-c2ccc(Cl)cc2)cs\c1=N/N=C/C=C/c1ccco1` [Compound 266], the “Selectivity Index MΦ/Lin–Vet” value in series [1] is 7. The EC50 in [1] (read-out: EC50 ± SD Lin–Vet) is 9 ± 1 µM; in series [2] (read-out: EC50 ± SD Lin–Ref) it was 2 ± 0.2 µM; in the series on fibroblasts (NCTC929), 405 ± 10 µM; in the series with T. cruzi [12] (setting [25]) it was 1.6 ± 0.5 µM; in the series with T. cruzi [12] (amastigotes, multiple strains, ref [13],[14],[15], read-out: EC50 in vitro anti-T. cruzi, amastigotes) it was over 0.25 µM; with T. brucei, 5 ± 1 µM. The EC50 was 20 ± 2 µM with L. braziliensis; 7 ± 1 µM with L. amazonensis [13] (Leishmania amazonensis, read-out: EC50 ± SD L. amaz); 60 ± 6 µM in series [14]. Moreover, the “diameter of the paw” value with L. amazonensis [7] is listed as “begins to decrease”. Besides, the “AMES test, mutagenic capacity” value in series [8] (previous works, ref [13],[16]) is on record as “negative”. Moreover, in [8] (ref [13],[14],[15]), the “Ames Test (mutagenicity)” value is recorded as “no”. In series [2] (EC50 mammalian cell line/EC50 L. infantum reference strain), the “Selectivity Index MΦ/Lin–Ref” value stood at 30. Further, the “acute toxicity LD50” value in [9] (previously evaluated, ref [13],[16]) was > 2000 mg/kg of weight. The “Acute oral toxicity LD50” value in [9] (ref [13],[14],[15]) was “LD50 > 2000 mg/kg in mice”. Moreover, the “Stability in vitro (microsomal, plasma, other solutions)” value in [10] is recorded as “high”. In addition, the “survival in the acute toxicity model in vivo” value in series [11] amounted to 100%. Besides, the inhibition at 10 µM in the series on L. infantum amastigote is 69%. In addition, the “Selectivity Index MΦ/L. amaz” value in the series with L. amazonensis [13] was 9. The “micronucleus test, genotoxicity” value in series [15] (previous works, ref [13],[16]) is recorded as “not genotoxic”. The “Micronucleus test in mice (Genotoxicity)” value in [15] (ref [13],[14],[15]) is on record as “no”.
On to `COc1cccc(-n2nnnc2S(C)(=O)=O)c1` [MMV272144, 1-(3-Methoxyphenyl)-5-(methylsulfonyl)-1H-tetrazole], for which the “Selectivity Index MΦ/Veterinary” value in [1] is listed as over 42. The EC50 in [1] (setting [23]) is 1.2 ± 0.1 µM; with C. albicans, 1.8 µM; at Replicative DNA helicase, 3.1 µM; in series [17] it was 1.3 µM; in series [2] (setting [24]), 2.4 ± 0.3 µM; in series [18], 10 µM. Besides, the values for the EC50 (in series [19]; in the series on Hsf1 protein; in series [20]) were 12.5 µM, 6.6 µM and 15 µM, respectively. Further, the in vivo absorption result in series [16] was “low”. The metabolic stability entry in series [16] is reported as “low”. In [2], the “Selectivity Index MΦ/Reference” value is over 21. In [4], this compound yielded an EC50 at 48 h of over 50 µM.
On to `CCCCCCCCCCCCCCCCOP(=O)([O-])OCC[N+](C)(C)C` [Miltefosine, reference compound], for which the “Selectivity Index MΦ/Veterinary” value in series [1] turned out to be 12. In [1], the “Selectivity Index MΦ/Lin–Vet” value was found to be 10. Moreover, the “Selectivity Index MΦ/Reference” value in series [2] worked out at 10. Besides, the EC50 in [21] (Miltefosine comparative data, ref [19], read-out: EC50 L. infantum Reference) was 5.3 ± 0.1 µM; in [21] (Table 3, Miltefosine control, footnote f, ref [13],[16],[19],[23],[25], read-out: EC50 ± SD Lin–Ref), 5.3 ± 0.1 µM; in the series on T. cruzi [12] (setting [25]), 8 ± 2 µM; in series [22] (Miltefosine comparative data, ref [19], read-out: EC50 L. infantum Veterinary) it was 4.1 ± 0.1 µM; in series [22] (Table 3, Miltefosine control, footnote f, ref [13],[16],[19],[23],[25], read-out: EC50 ± SD Lin–Vet), 4.1 ± 0.1 µM; in the series on L. braziliensis, 5 ± 2 µM. In [14], the EC50 was 50 ± 7 µM. The “Selectivity Index MΦ/L. amaz” value in the series with L. amazonensis [13] came out at 10. Also, the midpoint of the response in series [4], the EC50 at 48 h, lay at 50 ± 7 µM.

For orientation: EC50 means the concentration at which the effect is half-maximal. As usually defined, the inhibition is the relative decrease from the control value, in per cent. Lower therefore signals a weak effect.
